Measured values reported in patent US10220064B2, “Carbohydrate composition extracted from Panax ginseng and its use in the treatment of ischemic conditions” (Macau University of Science and Technology, priority 2016, dated 2019).

Experiments:
H/R-induced H9c2 cells = test: Impact of survival pathway inhibitors on AP1-induced cardio-protection (MVS assay); conditions: with 200 μg/mL AP1; mifepristone 100 μM, tamoxifen 100 μM, L-NAME 10 μM, LY294002 40 μM, Akt inhibitor IV 10 μM, U0126 40 μM (FIG. 11)
Method: H9c2 cells were pre-cultured in the presence or absence of survival pathway inhibitors, including mifepristone (MP, 100 μM), tamoxifen (TX, 100 μM), L-NAME (LM, 10 μmol/L), LY294002 (LY, 40 μM), Akt inhibitor IV (IV, 10 μM), U0126 (40 μM) with or without 200 μg/mL AP1 for 1 h, and then exposed further to H/R injury. The normal group (NOR) was always maintained in normoxic condition. Cell death was assessed by MVS assay. All measurements were repeated in six wells, the results are the average of three independent experiments. All values are expressed as mean±SD. ^^^P<0.001 vs. NOR, ***P<0.001 vs. H/R, ^##P<0.01 vs. AP1 under H/R, ^###P<0.001 vs. AP1 under H/R.
To examine the effectiveness of RSE and AP1 on H9c2 cells under hypoxia/reoxygenation conditions, the cells were cultured under normoxic conditions (95% air/5% CO2) overnight; then the cells were washed twice with Krebs-Ringer Bicarbonate buffer (composition in mM: NaCl 115, KCl 4.7, CaCl2 2.5, KH2PO4 1.2, MgSO4 1.2, NaHCO3 24, HEPES 10; pH 7.4) balanced with N2 at 4° C. for overnight. Aliquots (100 μL) of KRB supplemented with 0.01% (w/v) BSA were added to the cells immediately prior to hypoxia. To create a hypoxia condition, a hypoxic chamber (Stem Cell Technologies, USA) was used to produce an in vitro hypoxia challenge (Chiu, P. Y. et al., Molecular and cellular biochemistry 350, 237-250, 2011). In essence, the cells were placed in the sealed chamber and the chamber was flushed with pure N2 for 5 min at a flow rate of 20 mL/min, then, all sealable connectors were closed. After that, the chamber was transferred to an incubator and the cells in the chamber were subjected to 3 h incubation at 37° C. to induced hypoxia. Reoxygenation was initiated by opening the chamber and then replacing the KRB with fresh DMEM medium, the cells were then cultured in an incubator under normoxic conditions (95% air/5% CO2) at 37° C. for another 4 h.
The cells were seeded at the density of 8×10^4 cells/well in a 96-well plate. […] The control normal group was always maintained in normal DMEM and put in the incubator under normoxic atmosphere (95% air/5% CO2). For pharmaceutical blockages, the cells were treated with mifepristone (an inhibitor of GR, 100 μM), tamoxifen (an inhibitor of ER, 100 μM), L-NAME (an inhibitor of NOS, 10 μM), LY294002 (an inhibitor of PI3K, 40 μM), Akt inhibitor IV (an inhibitor of Akt protein kinase, 10 μM), U0126 (an inhibitor of Erk1/2, 40 μM) right before the pretreatment of AP1 (200 μg/mL).
The cell viability was evaluated by MVS assay (Sathishkumar, K. et al., Free Radicals and Antioxidant Protocols, 51-61, 2010). Briefly, at the end of the cell culture, the cells were overlaid with 100 μL of 2×mitochondrial viability stain in each well containing 100 μL of medium and then incubated under normoxic condition (95% air/5% CO2) for 4 h in the dark. The fluorescent intensity was measured at excitation 550 nm and emission 590 nm by a TECAN Infinite M200 micro plate reader (Tecan, Durham, USA).

H9c2 cells [1] = test: Cell morphology in the H/R model; assay type: cell-based, rat; conditions: 100 μM, pretreatment, H/R (FIG. 8E)
Source text: FIG. 8A through 8E show the cell morphology of H9c2 cell pretreated with the carbohydrate composition AP1 in the H/R model. […] All photos (magnification power 200×) were taken after reoxygenation.
The medium was changed every two days, and the confluent cells were passaged by trypsinization weekly. The cells passaged for three to four times were used for experiments described as below.

H9c2 cells [2] = test: Flow cytometric analysis of cardiomyocyte apoptosis (Annexin V/PI); assay type: cell-based, rat; conditions: 100 μM, H/R, H/R group 46.0%
Source text: The normal group (Normal) was always maintained in normoxic condition. The cells were then stained with Annexin V-FITC and PI for apoptosis analysis by flow cytometry. Cells in the lower-left quadrant (Q3), unstained for both Annexin V-FITC and PI, are defined as viable cells. Cells in the lower-right quadrant (Q4), stained for Annexin V-FITC but negative for PI, are defined as early-medium apoptotic cells. Cells in the upper-right quadrant (Q2), positive for both Annexin V-FITC and PI, are defined as late apoptotic and necrotic populations. […] The percentage of apoptotic cells measured using the Annexin-V/PI kit for flow cytometry as manufacturer's instruction. […] Cells were re-suspended in 1× binding buffer containing propidium iodide (PI) and FITC-labelled Annexin V and incubated for 15 min at 37° C. in the dark, and analyzed with flow cytometry (FACS Vantage-BD Sciences, USA). The data was analyzed using Flow J software for determining the percent of apoptotic cells.

[3] = tested on: NO in culture medium of H9c2 cells; test: Nitric oxide (NO) production, Griess reaction; assay type: cell-based, rat; conditions: L-NAME 10 μmol/L, H/R (FIG. 12)
Method: FIG. 12 illustrates the effect of carbohydrate composition AP1 on NO production. […] The normal group (Normal) was always maintained in normoxic condition. The changes of NO levels in culture medium of H9c2 cells following H/R injury were determined by Griess reagent.
The concentration of NO in the culture medium was determined by the Griess reaction with minor changes (Chen, X. P. et al., Journal of Neuroinflammation 9, 2012). At the end of the cell culture, 40 μL cell culture fluid, 10 μL NADPH, and 40 μL basal solution (0.03 M PBS; 1.25 mM glucose-6-phosphate; 400 U/L glucose-6-phosphate dehydrogenase; 200 U/L nitrate reeducates) was incubated in a 96 well microtiter plate for 45 min at room temperature. Next, 50 μL Griess reagent was added and the solution incubated for 20 min in the dark at room temperature. Finally, the absorbance of the samples was measured at 540 nm. Concentrations of NO in the sample were calibrated with a reference standard of sodium nitrite (NaNO2) supplied with the kit and the levels of NO were expressed as μM.

Compound | effect of inhibitor on protective effects of AP1 on H/R-induced cell death (H/R-induced H9c2 cells) | further results
CC[n+]1c(/C=C/N(C)c2ccccc2)n(-c2ccccc2)c2ccc(-c3nc4ccccc4s3)cc21.[I-] [Akt inhibitor IV] | abolished the protective effects of AP1 | 
CC1=NS(=O)(=O)c2cc(Cl)ccc2N1 [DZ, diazoxide] |  | protection in H/R induced cell death (H9c2 cells [1]): significant protection; apoptosis (apoptotic cell accumulation) (H9c2 cells [2]): 22.2±3.8%
COC(=O)[C@@H](N)CCCNC(=N)N[N+](=O)[O-] [L-NAME] | abolished the protective effects of AP1 | NO production [3]: significantly abolished
N#CC(=C(/N)Sc1ccccc1N)/C(C#N)=C(\N)Sc1ccccc1N [U0126] | abolished the protective effects of AP1 | 
CC#C[C@]1(O)CC[C@H]2[C@@H]3CCC4=CC(=O)CCC4=C3[C@@H](c3ccc(N(C)C)cc3)C[C@@]21C [mifepristone] | abolished the protective effects of AP1 | 
CC/C(=C(\c1ccccc1)c1ccc(OCCN(C)C)cc1)c1ccccc1 [tamoxifen] | abolished the protective effects of AP1 | 
